Read-outs that look alike come from different tables or passages of the source.
Experiments:
[1] = molecular target: cGMP-specific PDE V (PDE5) (Homo sapiens, UniProt O76074); assay: cGMP-specific PDE V (PDE5) enzyme activity assay with p-NPPPh substrate; assay type: biochemical
Protocol: Following the addition of 10 mM p-NPPPh, the reaction mixture was incubated at 37 °C for 10 min. After the incubation period, the concentration of liberated 4-nitrophenol was determined by measuring its absorbance values at a wavelength of 405 nm using a microplate reader. […] Con, control group treated enzyme only.
The specific substrate used for PDE5 was p-NPPPh, following a previously described method. The enzyme solution was prepared by adding 1 U of PDE5 to a volume of 10 μL in 40 mM Tris-HCl buffer at pH 7.4. The substrate solution (10 mM) was prepared by dissolving the substrate in Tris-HCl buffer at pH 7.4. […] Following the pretreatment, the reaction was initiated and allowed to continue for an additional 10 min at 37 °C upon the addition of 10 mM p-NPPPh in a total reaction volume of 80 μL. Following the incubation period, the absorbance of the mixture was measured at 405 nm using a microplate reader. The enzyme activity was quantified in units, where one unit corresponds to the amount of enzyme needed to hydrolyze 1 micromol of p-NPPPh. The inhibitory activity of PDE5 (%) was calculated by determining the residual activity (U). PDE5 inhibitory activity (%) = ([Residual unit control without sample − Residual unit control with sample]/Residual unit control without sample) × 100

aminopeptidase N (APN) = molecular target: T1, aminopeptidase N (APN) (Homo sapiens, UniProt P15144); assay: Aminopeptidase N (APN) enzyme activity assay with L-p-NA substrate; assay type: biochemical; conditions: for inhibition of APN in in vitro enzyme assay: at the highest concentration; for enzymatic activity of APN: treatment with 10 mM, without sample 0.38 U
T1 construct: purchased Sigma-Aldrich
Protocol: Figure 2 Effects of AAE and AAE-derived compounds on APN activity. […] The reaction was started by adding 20 μL enzyme solution (1 mU) and incubated for 60 min at 37 °C. The absorbance of samples were measured at 405 nm to determine the formation of p-nitroaniline. Each value is the mean ± SD of triplicate measurements. * p < 0.05 and ** p < 0.01, compared to each control group (Con). Con, control group treated enzyme only.
The activity of APN was determined according to Melzig et al.. Briefly, the enzyme substrate L-p-NA (2 mM) was dissolved in 50 mM N-(2-hydroxyethyl)piperazine-N’-2ethansulfonic acid (HEPES) buffer (pH 7.4) containing 154 mM NaCl. […] The reaction was started by adding 20 μL enzyme solution (approximately 1 mU in HEPES-buffer) and incubated for 60 min at 37 °C. The samples were measured spectrophotometrically at 405 nm to determine the formation of p-nitroanilmne. APN inhibitory activity (%) = ([Absorbance control without sample − Absorbance control with sample]/Absorbance control without sample) × 100

APN [2] = molecular target: T2, APN (Homo sapiens, UniProt P15144); assay: Kinetic assay (Lineweaver–Burk) on APN; assay type: biochemical; conditions: for Ki: APN; for inhibition type against APN: from Kik/Kiv ratio, new decision system [27]; for Vmax value of APN, fold of non-treated group: highest concentration, non-treated 0.316 mU/min = 1.0-fold
T2 construct: purchased Sigma-Aldrich
Protocol: Lineweaver–Burk plots were employed to analyze the inhibition of the target enzyme. These plots were represented as 1/velocity (1/V) versus 1/substrate concentration (1/(S)) in the presence or absence of each sample (non-treated (black circle), 10 μg or 1 mM (blue circle), 20 μg or 2 mM (green circle), 50 μg or 5 mM (orange circle), and 100 μg or 10 mM (purple circle)) as an inhibitor against APN.
(§1) These reactions were conducted in a total volume of 80 μL. by a previously described method. The Michaelis–Menten constant (Km) and maximal velocity (Vmax) were calculated using the x and y intercepts, respectively. […] Additionally, the Kik and Kiv inhibition constants were calculated using previously described methods.

PDE5 = PDE5 (Homo sapiens, UniProt O76074); assay: Kinetic assay (Lineweaver–Burk) on PDE5;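 for Kcat: pure compound doses in mM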; assay type: biochemical; design: Vmax / Kcat: unit of the concentration uncertain; conditions: for Kik/Kiv: ratio according to Yang et al. [27]; for inhibition type against PDE5: from changes of Km and 1/Vmax (Lineweaver–Burk), putative decision system [27]; for Km value of PDE5, fold of non-treated / Vmax value of PDE5, fold of non-treated group: highest concentration; for Vmax value of PDE5, fold of non-treated group: non-treated 1.039 mU/min = 1.0-fold
Protocol: Lineweaver–Burk plots were employed to analyze the inhibition of the target enzyme. These plots were represented as 1/velocity (1/V) versus 1/substrate concentration (1/[S]) in the presence or absence of each sample (non-treated (black circle), 10 μg or 1 mM (orange circle), 20 μg or 2 mM (silver circle), 50 μg or 5 mM (yellow circle), and 100 μg or 10 mM (blue circle)) as an inhibitor against PDE5.
as §1

APN [3] = molecular target: T2, APN; design: method as in doi:10.1101/2021.02.26.433103; conditions: interacts with ALA474, ASP473, and SER476; cited from earlier work
[4] = APN treated with compound 10 mM
[5] = calculated by method of ref 27, read-out: Kiv
[6] = PDE5 treated with compound 1 (unit uncertain)
[7] = PDE5 treated with compound 2 (unit uncertain)
[8] = PDE5 treated with compound 5 (unit uncertain)
[9] = PDE5 treated with compound 10 (unit uncertain)

T2 sequence (P15144 whole entry, species assumed): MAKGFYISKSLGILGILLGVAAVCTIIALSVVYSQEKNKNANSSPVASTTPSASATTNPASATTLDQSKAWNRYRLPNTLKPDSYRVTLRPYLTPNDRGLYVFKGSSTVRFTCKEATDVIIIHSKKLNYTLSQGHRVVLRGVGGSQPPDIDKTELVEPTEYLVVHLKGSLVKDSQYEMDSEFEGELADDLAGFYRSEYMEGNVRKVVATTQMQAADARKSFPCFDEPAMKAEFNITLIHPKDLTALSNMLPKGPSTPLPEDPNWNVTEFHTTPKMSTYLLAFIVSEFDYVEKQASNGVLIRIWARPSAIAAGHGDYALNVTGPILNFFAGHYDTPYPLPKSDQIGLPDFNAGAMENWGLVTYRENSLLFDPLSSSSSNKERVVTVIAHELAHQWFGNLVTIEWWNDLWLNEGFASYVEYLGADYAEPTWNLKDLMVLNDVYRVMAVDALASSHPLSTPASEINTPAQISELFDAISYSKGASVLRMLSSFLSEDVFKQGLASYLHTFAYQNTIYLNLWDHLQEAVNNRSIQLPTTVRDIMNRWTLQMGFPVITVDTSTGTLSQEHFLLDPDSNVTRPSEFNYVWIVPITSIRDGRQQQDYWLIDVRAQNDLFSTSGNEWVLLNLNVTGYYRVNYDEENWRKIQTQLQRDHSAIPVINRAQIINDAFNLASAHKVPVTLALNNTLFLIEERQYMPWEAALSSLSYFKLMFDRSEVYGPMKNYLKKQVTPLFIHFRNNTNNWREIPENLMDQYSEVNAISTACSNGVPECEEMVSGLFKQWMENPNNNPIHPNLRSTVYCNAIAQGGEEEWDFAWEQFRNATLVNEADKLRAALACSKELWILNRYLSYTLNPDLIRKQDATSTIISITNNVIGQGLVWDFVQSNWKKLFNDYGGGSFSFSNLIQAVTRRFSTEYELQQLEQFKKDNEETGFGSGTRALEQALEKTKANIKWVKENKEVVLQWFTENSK
T1 sequence (P15144 whole entry, species assumed): as above

Structure (SMILES)	inhibition of APN in in vitro enzyme assay (aminopeptidase N (APN)) [%]	enzymatic activity of APN (aminopeptidase N (APN)) [U]	Kcat (APN [2]; APN treated with compound 1 mM) [s⁻¹]	Vmax (APN [2]; APN treated with compound 1 mM) [mU/min]	Kcat (APN [2]; APN treated with compound 2 mM) [s⁻¹]	Vmax (APN [2]; APN treated with compound 2 mM) [mU/min]	Kcat (APN [2]; APN treated with compound 5 mM) [s⁻¹]	Vmax (APN [2]; APN treated with compound 5 mM) [mU/min]	Kcat (APN [2]; [4]) [s⁻¹]	Vmax (APN [2]; [4]) [mU/min]	Ki (APN [2]; [5]) [mM]	Ki (APN [2]; read-out: Ki) [mM]	inhibition type against APN (APN [2])	Vmax value of APN, fold of non-treated group (APN [2]) [fold]	Kik/Kiv (PDE5; PDE5)	Kcat (PDE5; [6]) [k s^−1]	Vmax (PDE5; [6]) [mU/min]	Kcat (PDE5; [7]) [k s^−1]	Vmax (PDE5; [7]) [mU/min]	Kcat (PDE5; [8]) [k s^−1]	other results
C[S@+]([O-])C[C@H](N)C(=O)O [MT, methiin]	32	0.26 ± 0.02	367.0 ± 3.7	0.296 ± 0.003	310.6 ± 6.2	0.250 ± 0.005	246.8 ± 3.7	0.199 ± 0.003	218.9 ± 2.5	0.176 ± 0.002	12.6	13.4	noncompetitive-type	0.56	3.2	6261 ± 189	0.828 ± 0.025	5580 ± 159	0.738 ± 0.021	4007 ± 98	IC50 [1]: 7.56 mM; reduction of PDE5 enzymatic activity ([1]; range over 1, 2, 5, and 10 mM): 24.83–53.90%; Ki (PDE5; PDE5): 21.5 mM; Vmax (PDE5; [8]): 0.530 ± 0.013 mU/min; Kcat (PDE5; [9]): 3673 ± 144 k s^−1; Vmax (PDE5; [9]): 0.486 ± 0.019 mU/min; inhibition type against PDE5 (PDE5): uncompetitive-type; Km value of PDE5, fold of non-treated (PDE5): 0.74 fold; Vmax value of PDE5, fold of non-treated group (PDE5): 0.47 fold
O=c1c(O)c(-c2ccc(O)c(O)c2)oc2cc(O)cc(O)c12 [QUE, quercetin]	33	0.25 ± 0.01	368.1 ± 6.2	0.297 ± 0.005	316.6 ± 7.4	0.255 ± 0.006	244.1 ± 3.7	0.197 ± 0.003	212.3 ± 2.5	0.171 ± 0.002	11.8	13.2	noncompetitive-type	0.54	9.4	5473 ± 234	0.724 ± 0.031	5187 ± 166	0.686 ± 0.022	2893 ± 60	interaction energy with APN (docking) (APN [3]): -6.9 kcal/mol; IC50 (aminopeptidase N (APN)): > 10 mM; Vmax (PDE5; [8]): 0.383 ± 0.008 mU/min; Kcat (PDE5; [9]): 1478 ± 38 k s^−1; Vmax (PDE5; [9]): 0.195 ± 0.005 mU/min; inhibition type against PDE5 (PDE5): uncompetitive-type; Km value of PDE5, fold of non-treated (PDE5): 0.69 fold; Vmax value of PDE5, fold of non-treated group (PDE5): 0.19 fold

From paper PMC10488055, “Investigation of Potential cGMP-Specific PDE V and Aminopeptidase N Inhibitors of Allium ampeloprasum L. and Its Bioactive Components: Kinetic and Molecular Docking Studies” (International Journal of Molecular Sciences, 2023)
